Results reported in patent US20250230193A1, “CYCLIC COMPOUND HAVING SELECTIVE KRAS INHIBITORY EFFECT ON HRAS AND NRAS” (CHUGAI SEIYAKU KABUSHIKI KAISHA, priority 2022, published 2025).
Where a SMILES comes first, the peptide text is derived from it. Bridges are numbered along the chain shown (N, C = ends). [ ]: non-standard residue; d: D form. The star is where a group is joined. hPhe(3-Cl-4-CF3) = N[C@@H](CCc1ccc(C(F)(F)F)c(Cl)c1)C(=O)O; NPrPhe(4-CF3) = CCCN[C@@H](Cc1ccc(C(F)(F)F)cc1)C(=O)O; NMeGly(cPent) = CN[C@H](C(=O)O)C1CCCC1; NMeD = CN[C@@H](CC(=O)O)C(=O)O; NMeL = CN[C@@H](CC(C)C)C(=O)O; Morpholide = C1CN(*)CCO1; NMeA = CN[C@@H](C)C(=O)O; Ac5c = NC1(C(=O)O)CCCC1; Aze = O=C(O)[C@@H]1CCN1; Sar = CNCC(=O)O

What was measured:
[1] = target: GDP-bound NRAS wild-type protein (Homo sapiens, UniProt P01111); experiment: Binding to NRAS by surface plasmon resonance (SPR), Single Cycle Kinetics; conditions: SPR; for NRAS/KRAS (ratio of KD value with respect to NRAS to KD value with respect to KRAS) / NRAS/KRAS (ratio of KD value for NRAS to KD value for KRAS): GDP-bound NRAS wild-type vs GDP-bound KRAS wild-type
[2] = target: GDP-bound HRAS wild-type protein (Homo sapiens, UniProt P01112); experiment: Binding to HRAS by surface plasmon resonance (SPR), Single Cycle Kinetics; conditions: SPR; for HRAS/KRAS (ratio of KD value with respect to HRAS to KD value with respect to KRAS) / HRAS/KRAS (ratio of KD value for HRAS to KD value for KRAS): GDP-bound HRAS wild-type vs GDP-bound KRAS wild-type
GDP-bound HRAS wild-type protein, sequence (P01112 whole entry): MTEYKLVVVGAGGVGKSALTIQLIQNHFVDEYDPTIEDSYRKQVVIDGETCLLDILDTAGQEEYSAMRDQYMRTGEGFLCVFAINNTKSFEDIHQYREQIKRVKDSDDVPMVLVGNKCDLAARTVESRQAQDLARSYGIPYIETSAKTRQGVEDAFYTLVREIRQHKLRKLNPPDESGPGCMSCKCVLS

GDP-bound NRAS wild-type protein, sequence (P01111 whole entry): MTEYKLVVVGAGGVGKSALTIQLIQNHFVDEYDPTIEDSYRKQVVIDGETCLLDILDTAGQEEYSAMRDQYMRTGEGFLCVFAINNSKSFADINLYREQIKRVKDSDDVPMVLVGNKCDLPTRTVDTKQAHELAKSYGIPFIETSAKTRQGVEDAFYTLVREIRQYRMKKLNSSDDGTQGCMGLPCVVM

Row | SMILES | NRAS/KRAS (ratio of KD value with respect to NRAS to KD value with respect to KRAS) [1] | HRAS/KRAS (ratio of KD value with respect to HRAS to KD value with respect to KRAS) [2] | NRAS/KRAS (ratio of KD value for NRAS to KD value for KRAS) [1] | HRAS/KRAS (ratio of KD value for HRAS to KD value for KRAS) [2] | further results
1 | CCO[C@@H]1C[C@H]2C(=O)NC3(CCC3)C(=O)N(C)[C@@H](C3CCCC3)C(=O)N(C)[C@H](C(=O)N3CCOCC3)CC(=O)N(C)[C@@H](Cc3cccc(C#N)c3)C(=O)N[C@@H]([C@@H](C)CC)C(=O)N(C)CC(=O)N(C)[C@H]3CCCCCN(C3=O)[C@@H](Cc3ccc(F)cc3)C(=O)N(C)CC(=O)N[C@@H](CCc3cc(F)c(C(F)(F)F)c(F)c3)C(=O)N2C1 [PP1186] | B (a compound having 3 or more and less than 10 is denoted as B) | B (a compound having 3 or more and less than 10 is denoted as B) |  |  | 
2 | CCCN1C(=O)[C@@H]2CCN2C(=O)[C@H](C)N(C)C(=O)[C@H]([C@@H](C)CC)NC(=O)[C@H](CC(C)C)N(C)C(=O)C[C@@H](C(=O)N2CCOCC2)N(C)C(=O)[C@H](C2CCCC2)N(C)C(=O)C2(CCCC2)NC(=O)[C@@H]2CCCN2C(=O)[C@H](CCc2ccc(C(F)(F)F)c(Cl)c2)NC(=O)CN(C)C(=O)[C@@H]1Cc1ccc(C(F)(F)F)cc1 [PP0053] ([NMeL]I[NMeA][Aze][NPrPhe(4-CF3)][Sar][hPhe(3-Cl-4-CF3)]P[Ac5c][NMeGly(cPent)][NMeD]-Morpholide; lactam N-11) |  |  |  |  | NRAS/KRAS (ratio of KD for GDP-bound NRAS wild-type to KD for KRAS) ([1]; KD ratio NRAS/KRAS): C (A compound having a KD ratio of 0.1 or more and less than 3 is denoted as C); HRAS/KRAS (ratio of KD for GDP-bound HRAS wild-type to KD for KRAS) ([2]; KD ratio HRAS/KRAS): C (A compound having a KD ratio of 0.1 or more and less than 3 is denoted as C)
3 | CCCN(C)C(=O)[C@@H]1CC(=O)N(C)[C@@H](COC)C(=O)N[C@@H]([C@@H](C)CC)C(=O)N(C)CC(=O)N(C)[C@H]2C/C=C\CCN(C2=O)[C@@H](Cc2ccc(C(F)(F)F)cc2)C(=O)N(C)CC(=O)N[C@@H](CCc2cc(F)c(C(F)(F)F)c(F)c2)C(=O)N2C[C@H](OCC)C[C@H]2C(=O)NC2(CC(C)(C)C2)C(=O)N(C)[C@@H](C2CCCC2)C(=O)N1C [PP1672] |  |  | A (a compound having 10 or more and less than 20 is denoted as A) | A (a compound having 10 or more and less than 20 is denoted as A) | 
4 | CCC[C@H]1C(=O)N[C@@H]([C@@H](C)CC)C(=O)N(C)CC(=O)N(C)[C@H]2C/C=C\CCN(C2=O)[C@@H](Cc2ccc(C(F)(F)F)cc2)C(=O)N(C)CC(=O)N[C@@H](CCc2cc(F)c(C(F)(F)F)c(F)c2)C(=O)N2C[C@H](OCC)C[C@H]2C(=O)NC2(CCC2)C(=O)N(C)[C@@H](C2CCCC2)C(=O)N(C)[C@H](C(=O)N(CC)CC)CC(=O)N1C [PP1310] |  |  |  |  | NRAS/KRAS (ratio of KD value for GDP-bound NRAS wild-type protein to KD value for KRAS) ([1]; KD ratio class): AA (a compound having 20 or more is denoted as AA); HRAS/KRAS (ratio of KD value for GDP-bound HRAS wild-type protein to KD value for KRAS) ([2]; KD ratio class): A (a compound having 10 or more and less than 20 is denoted as A)
5 | CCO[C@@H]1C[C@H]2C(=O)NC3(CCC3)C(=O)N(C)[C@@H](C3CCCC3)C(=O)N(C)[C@H](C(=O)N3CCOCC3)CC(=O)N(C)[C@@H](Cc3ccccc3F)C(=O)N[C@@H]([C@@H](C)CC)C(=O)N(C)CC(=O)N(C)[C@H]3CCCCCN(C3=O)[C@@H](Cc3ccc(C(F)(F)F)cc3)C(=O)N(C)CC(=O)N[C@@H](CCc3cc(F)c(C(F)(F)F)c(F)c3)C(=O)N2C1 [PP0926] | B (a compound having 3 or more and less than 10 is denoted as B) | B (a compound having 3 or more and less than 10 is denoted as B) |  |  | 
6 | CCCC[C@H]1C(=O)N[C@@H]([C@@H](C)CC)C(=O)N(C)CC(=O)N(C)[C@H]2C/C=C\CCN(C2=O)[C@@H](Cc2ccc(C(F)(F)F)cc2)C(=O)N(C)CC(=O)N[C@@H](CCc2cc(F)c(C(F)(F)F)c(F)c2)C(=O)N2CC(F)(F)C[C@H]2C(=O)NC2(CC(C)(C)C2)C(=O)N(C)[C@@H](C2CCCC2)C(=O)N(C)[C@H](C(=O)N(C)C)CC(=O)N1C [PP1714] |  |  | A (a compound having 10 or more and less than 20 is denoted as A) | A (a compound having 10 or more and less than 20 is denoted as A) | 
